From BindingDB's records for doi:10.1016/s0960-894x(01)00092-0 (Novartis Pharma, 2001) come the findings set out here.

The structures appear in SMILES notation.

Assay [1] is described as follows: Inhibitory concentration against Selectin E in a dynamic flow assay.
Assay in assay [2]: as above
The source holds these as a separate data set.

`C[C@@H]1O[C@@H](O[C@@H]2[C@H](CO)OCC[C@H]2O[C@@H]2O[C@@H](CO)[C@H](O)[C@H](O[C@@H](CC3CCCCC3)C(=O)O)[C@@H]2O)[C@@H](O)[C@@H](O)[C@@H]1O` [Sodium; (R)-3-cyclohexyl-2-{3,5-dihydroxy-2-hydroxymethyl-6-[2-hydroxymethyl-3-(3,4,5-trihydroxy-6-methyl-tetrahydro-pyran-2-yloxy)-tetrahydro-pyran-4-yloxy]-tetrahydro-pyran-4-yloxy}-propionate] returned an IC50 in assay [1] of 30 µM.
In the case of `COC(=O)CCCCCCCCO[C@@H]1O[C@@H](CO)[C@@H](O[C@@H]2O[C@@H](CO)[C@H](O)[C@H](O[C@@H](CC3CCCCC3)C(=O)O)[C@@H]2O)[C@H](O[C@@H]2O[C@@H](C)[C@@H](O)[C@H](O)[C@@H]2O)[C@@H]1NC(=O)c1ccc(OC)c(OC)c1` [Sialyl Lewis X Analogue], in assay [2], the 50% inhibitory concentration (IC50) was 10 µM.
